Here are results for six compounds from ChEMBL document CHEMBL5370550, “Structure-guided optimization of adenosine mimetics as selective and potent inhibitors of coronavirus nsp14 N7-methyltransferases” (Eur J Med Chem, 2023).

Active and inactive are the calls of the source. The calls are words filed in the database; no cut-off is given here.

As a reminder, the inhibition is the relative decrease from the control value, in per cent. For orientation: residual activity means the signal under treatment as a percentage of the control signal. By IC50 is commonly meant the midpoint of a concentration-inhibition curve.

The target in one data set is Replicase polyprotein 1ab (Severe acute respiratory syndrome-related coronavirus) (UniProt P0C6X7). As to conditions: dose 5.0 µM, time 30.0 min.
Turning to `COc1ccc(S(=O)(=O)NC[C@H]2O[C@@H](n3cnc4c(=O)[nH]cnc43)[C@H](O)[C@@H]2O)cc1C#N`, the inhibition was determined as 98.4%.

Turning to `CCN(C[C@H]1O[C@@H](n2cnc3c(NC)ncnc32)[C@H](O)[C@@H]1O)S(=O)(=O)c1ccc(OC)c(C#N)c1`, the inhibition is 4.3%.

`CNc1ncnc2c1ncn2[C@@H]1O[C@H](CNS(=O)(=O)c2ccc(OC)c(C#N)c2)[C@@H](O)[C@H]1O`: the inhibition turned out to be 45.1%.

The compound `CCN(C[C@H]1O[C@@H](n2cnc3c(=O)[nH]cnc32)[C@H](O)[C@@H]1O)S(=O)(=O)c1ccc(Cl)c(C)c1` displayed an inhibition of 91%.

Consider `CCN(C[C@H]1O[C@@H](n2cnc3c(=O)[nH]cnc32)[C@H](O)[C@@H]1O)S(=O)(=O)c1ccc(OC)c([N+](=O)[O-])c1`, for which the inhibition turned out to be 69.8%.

Take `COc1ccc(S(=O)(=O)N(C)C[C@H]2O[C@@H](n3cc(C#Cc4cnc5ccccc5c4)c4c(N)ncnc43)[C@H](O)[C@@H]2O)cc1[N+](=O)[O-]`: the inhibition is 0.8%.

The next data set deals with Replicase polyprotein 1ab (Severe acute respiratory syndrome coronavirus 2) (UniProt P0DTD1). As to conditions: dose 5.0 µM, time 30.0 min, values are per cent of control.
In the case of `COc1ccc(S(=O)(=O)NC[C@H]2O[C@@H](n3cnc4c(=O)[nH]cnc43)[C@H](O)[C@@H]2O)cc1C#N`, the residual activity stood at 86%.

The compound `CCN(C[C@H]1O[C@@H](n2cnc3c(NC)ncnc32)[C@H](O)[C@@H]1O)S(=O)(=O)c1ccc(OC)c(C#N)c1` returned a residual activity of 4.2%.

In turn, `CNc1ncnc2c1ncn2[C@@H]1O[C@H](CNS(=O)(=O)c2ccc(OC)c(C#N)c2)[C@@H](O)[C@H]1O` came in with a residual activity of 25.4%.

On to `CCN(C[C@H]1O[C@@H](n2cnc3c(=O)[nH]cnc32)[C@H](O)[C@@H]1O)S(=O)(=O)c1ccc(Cl)c(C)c1`, for which the residual activity was 75.5%.

Compound `CCN(C[C@H]1O[C@@H](n2cnc3c(=O)[nH]cnc32)[C@H](O)[C@@H]1O)S(=O)(=O)c1ccc(OC)c([N+](=O)[O-])c1` gave a residual activity of 56.4%.

The compound `COc1ccc(S(=O)(=O)N(C)C[C@H]2O[C@@H](n3cc(C#Cc4cnc5ccccc5c4)c4c(N)ncnc43)[C@H](O)[C@@H]2O)cc1[N+](=O)[O-]` returned a residual activity of 0%.

System in the next data set: not listed separately
In words: Cytotoxicity against Green monkey VeroE6/TMPRSS2 cells assessed as reduction in cell viability upto 10 uM by CellTiter Blue assay. It is filed as toxicity, cell-based. As to conditions: chlorocebus sabaeus, veroe6/tmprss2, 10 µM.
Take `COc1ccc(S(=O)(=O)N(C)C[C@H]2O[C@@H](n3cc(C#Cc4cnc5ccccc5c4)c4c(N)ncnc43)[C@H](O)[C@@H]2O)cc1[N+](=O)[O-]`: the Activity result is reported as “Non-Toxic”.

In another data set the target is T1, mRNA cap guanine-N(7) methyltransferase (Homo sapiens, UniProt O43148).
T1 sequence (O43148 whole entry): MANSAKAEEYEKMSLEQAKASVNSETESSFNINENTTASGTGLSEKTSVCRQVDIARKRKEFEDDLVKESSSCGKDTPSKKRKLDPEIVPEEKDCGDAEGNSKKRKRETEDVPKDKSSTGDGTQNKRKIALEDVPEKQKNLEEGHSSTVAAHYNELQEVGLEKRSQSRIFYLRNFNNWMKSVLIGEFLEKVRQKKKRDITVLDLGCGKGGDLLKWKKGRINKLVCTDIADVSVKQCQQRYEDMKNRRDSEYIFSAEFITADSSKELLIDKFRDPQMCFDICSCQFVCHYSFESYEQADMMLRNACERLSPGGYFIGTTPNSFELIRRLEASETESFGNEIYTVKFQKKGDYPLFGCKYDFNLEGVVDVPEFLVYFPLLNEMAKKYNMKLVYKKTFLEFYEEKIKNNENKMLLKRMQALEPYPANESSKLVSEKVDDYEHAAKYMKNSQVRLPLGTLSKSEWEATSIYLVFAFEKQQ
Conditions: not given
The compound `CCN(C[C@H]1O[C@@H](n2cnc3c(NC)ncnc32)[C@H](O)[C@@H]1O)S(=O)(=O)c1ccc(OC)c(C#N)c1` came in with an IC50 of 16100 nM.

Regarding `CNc1ncnc2c1ncn2[C@@H]1O[C@H](CNS(=O)(=O)c2ccc(OC)c(C#N)c2)[C@@H](O)[C@H]1O`, the IC50 amounted to 56200 nM.

The next data set concerns the target T1, mRNA cap guanine-N(7) methyltransferase. As to conditions: dose 5.0 µM, time 30.0 min.
For the compound `COc1ccc(S(=O)(=O)NC[C@H]2O[C@@H](n3cnc4c(=O)[nH]cnc43)[C@H](O)[C@@H]2O)cc1C#N`, the inhibition result was “inactive”.

With `CCN(C[C@H]1O[C@@H](n2cnc3c(NC)ncnc32)[C@H](O)[C@@H]1O)S(=O)(=O)c1ccc(OC)c(C#N)c1`, the inhibition was found to be 55.9%.

As for `CNc1ncnc2c1ncn2[C@@H]1O[C@H](CNS(=O)(=O)c2ccc(OC)c(C#N)c2)[C@@H](O)[C@H]1O`, the inhibition entry was “inactive”.

In the case of `CCN(C[C@H]1O[C@@H](n2cnc3c(=O)[nH]cnc32)[C@H](O)[C@@H]1O)S(=O)(=O)c1ccc(Cl)c(C)c1`, the inhibition result is “inactive”.

On to `CCN(C[C@H]1O[C@@H](n2cnc3c(=O)[nH]cnc32)[C@H](O)[C@@H]1O)S(=O)(=O)c1ccc(OC)c([N+](=O)[O-])c1`, for which the inhibition entry was “inactive”.

`COc1ccc(S(=O)(=O)N(C)C[C@H]2O[C@@H](n3cc(C#Cc4cnc5ccccc5c4)c4c(N)ncnc43)[C@H](O)[C@@H]2O)cc1[N+](=O)[O-]` gave an inhibition of 49.9%.

The subject of a further data set is Severe acute respiratory syndrome coronavirus 2. As to conditions: time 30.0 min.
For `CNc1ncnc2c1ncn2[C@@H]1O[C@H](CNS(=O)(=O)c2ccc(OC)c(C#N)c2)[C@@H](O)[C@H]1O`, the inhibition entry is “inactive”.

In the next data set the target is Nonstructural protein 5 (Dengue virus, UniProt V5TFZ2). Further details: species or system dengue virus type 3.
Conditions: not given
With `CCN(C[C@H]1O[C@@H](n2cnc3c(NC)ncnc32)[C@H](O)[C@@H]1O)S(=O)(=O)c1ccc(OC)c(C#N)c1`, the IC50 entry is reported as “Not Active”.

`CNc1ncnc2c1ncn2[C@@H]1O[C@H](CNS(=O)(=O)c2ccc(OC)c(C#N)c2)[C@@H](O)[C@H]1O`: the IC50 result is listed as “Not Active”.

Another data set deals with Nonstructural protein 5 (Dengue virus) (UniProt V5TFZ2). As to conditions: dengue virus type 3; dose 5.0 µM, time 30.0 min.
Regarding `COc1ccc(S(=O)(=O)NC[C@H]2O[C@@H](n3cnc4c(=O)[nH]cnc43)[C@H](O)[C@@H]2O)cc1C#N`, the inhibition result was “inactive”.

As for `CCN(C[C@H]1O[C@@H](n2cnc3c(=O)[nH]cnc32)[C@H](O)[C@@H]1O)S(=O)(=O)c1ccc(Cl)c(C)c1`, the inhibition result is “inactive”.

As to `CCN(C[C@H]1O[C@@H](n2cnc3c(=O)[nH]cnc32)[C@H](O)[C@@H]1O)S(=O)(=O)c1ccc(OC)c([N+](=O)[O-])c1`, the inhibition is 86.4%.

`COc1ccc(S(=O)(=O)N(C)C[C@H]2O[C@@H](n3cc(C#Cc4cnc5ccccc5c4)c4c(N)ncnc43)[C@H](O)[C@@H]2O)cc1[N+](=O)[O-]`: the inhibition result was “inactive”.

For the next data set, the system named is SARS-CoV-2. Nature of the data set: Antiviral activity against SARS-CoV-2 B.1 infected in Green monkey VeroE6/TMPRSS2 cells assessed as viral replication inhibition at 10 uM incubated for 2 days by qRT-PCR analysis relative to control. As to conditions: time 2 day. It is filed as functional, Severe acute respiratory syndrome coronavirus 2. Set-up: scale not given: the % may be the effect or the level left. On the technique in general: Quantitative PCR measures a nucleic acid by following its amplification.
With `COc1ccc(S(=O)(=O)N(C)C[C@H]2O[C@@H](n3cc(C#Cc4cnc5ccccc5c4)c4c(N)ncnc43)[C@H](O)[C@@H]2O)cc1[N+](=O)[O-]`, the Activity is recorded as 50%.

For another data set, the target named is Replicase polyprotein 1ab (Severe acute respiratory syndrome coronavirus 2, UniProt P0DTD1).
Conditions: not given
`CCN(C[C@H]1O[C@@H](n2cnc3c(NC)ncnc32)[C@H](O)[C@@H]1O)S(=O)(=O)c1ccc(OC)c(C#N)c1` gave an IC50 of 62 nM.

`CNc1ncnc2c1ncn2[C@@H]1O[C@H](CNS(=O)(=O)c2ccc(OC)c(C#N)c2)[C@@H](O)[C@H]1O`: 468 nM corresponded to half-maximal inhibition (IC50).

`COc1ccc(S(=O)(=O)N(C)C[C@H]2O[C@@H](n3cc(C#Cc4cnc5ccccc5c4)c4c(N)ncnc43)[C@H](O)[C@@H]2O)cc1[N+](=O)[O-]` had an IC50 of 1.3 nM.

The next data set has as its target Replicase polyprotein 1ab (Severe acute respiratory syndrome-related coronavirus, UniProt P0C6X7).
Conditions: not given
Turning to `CCN(C[C@H]1O[C@@H](n2cnc3c(NC)ncnc32)[C@H](O)[C@@H]1O)S(=O)(=O)c1ccc(OC)c(C#N)c1`, the IC50 was 51.7 nM.

In the case of `CNc1ncnc2c1ncn2[C@@H]1O[C@H](CNS(=O)(=O)c2ccc(OC)c(C#N)c2)[C@@H](O)[C@H]1O`, it took 3990 nM to reach half-maximal inhibition (IC50).
